# Measured values taken from patent US20250122192A1, “5-PYRIMIDINECARBOXAMIDE DERIVATIVES AND METHODS OF USING THE SAME” (Rgenta Therapeutics, Inc., priority 2021, published 2025).
# Where a name gives a salt, the structure may show the parent alone.
# Test system: PMS1
# Assay: Mini-gene reporter assay-PMS1
# Type: cell-based
# Settings: Homo sapiens, HEK293, PMS1 mini-gene firefly luciferase reporter transiently transfected into HEK293 cells; read-out: PMS1 IC50
# Summary of the method: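 Compound dilution series in duplicate added to transiently transfected HEK293 reporter cells, then incubated; EC50 from Levenberg-Marquardt fit of luminescence. The reporter joins the alternatively skipped exon, its neighbouring introns and exons to firefly luciferase, so induced inclusion gives more signal.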
row,Structure (SMILES),IC50 [µM]
1,CCOc1nc(N2CCCC(C3CCNC3)C2)ncc1C(=O)Nc1cc(F)c2nc(C)cn2c1 (stereo not shown) [Compound 108],0.5 to 1
2,CCOc1nc(N2CC[C@@H](NC)C2)ncc1C(=O)Nc1ccc2nc(C)cn2n1 [Compound 317],> 3
3,"CCOc1nc(N2CCN(C)CC2)ncc1C(=O)Nc1cc(F)c2nc(C)cn2c1 [Compound 6, 4-ethoxy-N-{8-fluoro-2-methylimidazo[1,2-a]pyridin-6-yl}-2-(4-methylpiperazin-1-yl)pyrimidine-5-carboxamide]",1 to 3
4,CCOc1nc(N2CC3(CC(NC)CO3)C2)ncc1C(=O)Nc1cc(F)c2nc(C)cn2c1 (stereo not shown) [Compound 246],< 0.5
5,"CCOc1nc(N2CC3CNCC3C2)ncc1C(=O)Nc1cn2cc(C)nc2cn1 (stereo not shown) [Compound 28, 4-ethoxy-N-{2-methylimidazo[1,2-a]pyrazin-6-yl}-2-{octahydropyrrolo[3,4-c]pyrrol-2-yl}pyrimidine-5-carboxamide]",1 to 3
6,CCOc1nc(N2CCC(C3CCCN3)CC2)ncc1C(=O)Nc1cn2cc(C)nc2c(C)n1 (stereo not shown) [Compound 73],0.5 to 1
7,CCOc1nc(N2CCC3(CCN3)CC2)ncc1C(=O)Nc1cn2cc(C)nc2c(C)n1 [Compound 64],< 0.5
8,CCOc1nc(N2CCNC(C)CC2)ncc1C(=O)Nc1cc(F)c2nc(C)cn2c1 (stereo not shown) [Compound 191],< 0.5
9,CCOc1nc(N2CCCCC(C3CNC3)C2)ncc1C(=O)Nc1cc(F)c2nc(C)cn2c1 (stereo not shown) [Compound 150],1 to 3
10,CCOc1nc(N2CCCC(C3CCNCC3)C2)ncc1C(=O)Nc1cc(F)c2nc(C)cn2c1 (stereo not shown) [Compound 146],< 0.5
11,CCOc1nc(N(C)CC2CCNCC2)ncc1C(=O)Nc1cc(F)c2nc(C)cn2c1 [Compound 237],> 3
12,"CCOc1nc(N2CC[C@H](NC)C2)ncc1C(=O)Nc1cc(F)c2nc(C)cn2c1 [Compound 261, (S)-4-ethoxy-N-(8-fluoro-2-methylimidazo[1,2-a]pyridin-6-yl)-2-(3-(methylamino)pyrrolidin-1-yl)pyrimidine-5-carboxamide formate]",< 0.5
13,"CCOc1nc(NC2CCNCC2)ncc1C(=O)Nc1cn2cc(C)nc2cn1 [Compound 268, 4-ethoxy-N-(2-methylimidazo[1,2-a]pyrazin-6-yl)-2-(piperidin-4-ylamino) pyrimidine-5-carboxamide formate]",1 to 3
14,"CCOc1nc(N2CC[C@H](CNC)C2)ncc1C(=O)Nc1cc(F)c2nc(C)cn2c1 [Compound 297, (R)-4-ethoxy-N-(8-fluoro-2-methylimidazo[1,2-a]pyridin-6-yl)-2-(3-((methylamino)methyl)pyrrolidin-1-yl)pyrimidine-5-carboxamide 4-methylbenzenesulfonate]",< 0.5
15,CCOc1nc(N2CC3(CC(NC(C)C)CO3)C2)ncc1C(=O)Nc1cc(F)c2nc(C)cn2c1 (stereo not shown) [Compound 248],< 0.5
16,CCOc1nc(N2CC[C@@H]3CNC[C@@H]3CC2)ncc1C(=O)Nc1cc(F)c2nc(C)cn2c1 [Compound 181],1 to 3
17,CCOc1nc(N2CC(CO)C3(CNC3)C2)ncc1C(=O)Nc1cc(F)c2nc(C)cn2c1 (stereo not shown) [Compound 165],1 to 3
18,"CCOc1nc(N2CCC3(CC2)CN(C)C3)ncc1C(=O)Nc1cc(F)c2nc(C)cn2c1 [Compound 303, 4-ethoxy-N-(8-fluoro-2-methylimidazo[1,2-a]pyridin-6-yl)-2-(2-methyl-2,7-diazaspiro[3.5]nonan-7-yl)pyrimidine-5-carboxamide]",0.5 to 1
19,CCOc1nc(N(C)C2CCNCC2)ncc1C(=O)Nc1cn2cc(C)nc2c(C)n1 [Compound 57],< 0.5
20,CCOc1nc(N2CCN(C3CCNC3)CC2)ncc1C(=O)Nc1cc(F)c2nc(C)cn2c1 (stereo not shown) [Compound 224],1 to 3

row,Structure (SMILES),IC50 [µM]
1,CCOc1nc(N2C3CCCC2CNC3)ncc1C(=O)Nc1cc(F)c2nc(C)cn2c1 [Compound 130],1 to 3
2,"CCOc1nc(N2CCC(NC)C2)ncc1C(=O)Nc1ccc2nn(C)cc2c1 (stereo not shown) [Compound 270, 4-ethoxy-N-(2-methyl-2H-indazol-5-yl)-2-(3-(methylamino)pyrrolidin-1-yl)pyrimidine-5-carboxamide hydrochloride]",< 0.5
3,CCOc1nc(N2CC34CCCC3(CNC4)C2)ncc1C(=O)Nc1cc(F)c2nc(C)cn2c1 (stereo not shown) [Compound 151],1 to 3
4,CCOc1nc(N2CC3CCCC(C2)N3)ncc1C(=O)Nc1cc(F)c2nc(C)cn2c1 [Compound 185],1 to 3
5,CCOc1nc(N2CCC3CCNCC32)ncc1C(=O)Nc1cc(F)c2nc(C)cn2c1 (stereo not shown) [Compound 201],< 0.5
6,CCOc1nc(N(C)[C@H]2CCCNC2)ncc1C(=O)Nc1cc(F)c2nc(C)cn2c1 [Compound 163],< 0.5
7,CCOc1nc(N2CCC3(CCNCC3)C2)ncc1C(=O)Nc1cc(F)c2nc(C)cn2c1 [Compound 219],< 0.5
8,"CCOc1nc(N2CCNC3(CC3)C2)ncc1C(=O)Nc1cc(F)c2nn(C)cc2c1 [Compound 299, 4-ethoxy-N-(7-fluoro-2-methyl-2H-indazol-5-yl)-2-(4,7-diazaspiro[2.5]octan-7-yl)pyrimidine-5-carboxamide formate]",> 3
9,CCOc1nc(N2CCC3CCC(C2)N3)ncc1C(=O)Nc1cc(F)c2nc(C)cn2c1 (stereo not shown) [Compound 167],1 to 3
10,CCOc1nc(N2CCC(C3CCCN3)C2)ncc1C(=O)Nc1cc(F)c2nc(C)cn2c1 (stereo not shown) [Compound 120],< 0.5
11,CCOc1nc(N2CCC3(CCNCC3)CC2)ncc1C(=O)Nc1cc(F)c2nc(C)cn2c1 [Compound 207],< 0.5
12,"CCOc1nc(N2CCC(NC)C2)ncc1C(=O)Nc1cc(F)c2nn(C)cc2c1 (stereo not shown) [Compound 263, 4-ethoxy-N-(7-fluoro-2-methyl-2H-indazol-5-yl)-2-(3-(methylamino)pyrrolidin-1-yl)pyrimidine-5-carboxamide formate]",< 0.5
13,CCOc1nc(N(C)C2CCCNC2)ncc1C(=O)Nc1cc(F)c2nc(C)cn2c1 (stereo not shown) [Compound 244],< 0.5
14,CCOc1nc(N2CC3C4CCC(NC4)C3C2)ncc1C(=O)Nc1cc(F)c2nc(C)cn2c1 (stereo not shown) [Compound 125],0.5 to 1
15,"Cc1cn2cc(NC(=O)c3cnc(N4CCNCC4)nc3)cc(F)c2n1 [Compound 21, N-{8-fluoro-2-methylimidazo[1,2-a]pyridin-6-yl}-2-(piperazin-1-yl)pyrimidine-5-carboxamide]",1 to 3
16,CCOc1nc(N2CC3CNCCC32)ncc1C(=O)Nc1cc(F)c2nc(C)cn2c1 (stereo not shown) [Compound 136],< 0.5
17,CCOc1nc(N2CCC3(CCCNC3)C2)ncc1C(=O)Nc1cc(F)c2nc(C)cn2c1 (stereo not shown) [Compound 208],< 0.5
18,CCOc1nc(N2CCNCC(O)C2)ncc1C(=O)Nc1cc(F)c2nc(C)cn2c1 (stereo not shown) [Compound 171],1 to 3
19,CCOc1nc(N2C[C@H]3CNCC[C@H]3C2)ncc1C(=O)Nc1cn2cc(C)nc2c(C)n1 (racemic) [Compound 105],< 0.5
20,CCOc1nc(N(C)CC2CCCN2)ncc1C(=O)Nc1cc(F)c2nc(C)cn2c1 (stereo not shown) [Compound 200],1 to 3

# Same assay, conditions: Homo sapiens; at 5 μM; PMS1 mini-gene firefly luciferase reporter in HEK293 cells; read-out: PMS1% Effect at 5 μM
row,Structure (SMILES),activation at 5 µM [%]
1,"CCOc1nc(C2CCNC2)ncc1C(=O)Nc1cc(F)c2nc(C)cn2c1 (stereo not shown) [Compound 316, 4-ethoxy-N-8-fluoro-2-methylimidazo[1,2-a]pyridin-6-yl-2-(pyrrolidin-3-yl)-pyrimidine-5-carboxamide]",50 to 75
2,CCOc1nc(N2CC(CO)C3(CNC3)C2)ncc1C(=O)Nc1cn2cc(C)nc2c(C)n1 (stereo not shown) [Compound 50],< 50
3,CCOc1nc(N2CCNC3CC32)ncc1C(=O)Nc1cn2cc(C)nc2c(C)n1 (stereo not shown) [Compound 47],< 50
